Consider one compound from patent publication US9532961B2, “Method and kit for administering γ-glutamyl-D-cysteine for the prevention of reperfusion injury following ischemic stroke” (Rosalind Franklin University of Medicine and Science, priority 2005, dated 2017).

Entries after “also recorded” stand apart in the source; their conditions may differ.

One assay deals with heart and kidney. Conditions: heart and kidney (refs. 29, 45); cited from earlier work.
In another assay the target is T1, Na/Ca exchange (Homo sapiens, UniProt P32418).
T1 construct: host or cells: cardiac and renal tissues (as cited)
Conditions: cardiac and renal tissues (ref. 26); cited from earlier work.

Assay [1] concerns cultured bovine blood-brain barrier endothelial cells. Description: Intracellular calcium (Fluo-4 fluorescence) in cultured blood-brain barrier cells under simulated ischemia-reperfusion. In kind it is cell-based. Conditions: 20 μM KB-R7943 (reverse Na/Ca exchange inhibition), methanesulphonate. As to the method:
FIG. 4 is a bar graph of data showing that when cerebral capillary endothelial cells are exposed to ischemic conditions, intracellular calcium concentration increases and remains elevated during reperfusion; the elevation in intracellular calcium is prevented by pharmacological inhibition of the Na/H antiporter. Cultured bovine blood-brain barrier cells were treated as described above (FIG. 2). […] The rise in intracellular calcium observed during reperfusion was prevented by inhibiting Na/H antiport (100 μM DMA). *P<0.05 compared to control. +P<0.05 compared to reperfusion. Values are mean±SD. Intracellular calcium was measured with fluorescent imaging, using Fluo-4.
FIG. 5 is a bar graph of data showing that when cerebral capillary endothelial cells are exposed to ischemic conditions, intracellular calcium concentration increases and remains elevated during reperfusion; the elevation in intracellular calcium is prevented by pharmacological inhibition of reverse movement of the Na/Ca exchanger. Cultured bovine blood-brain barrier cells were treated as described above (FIG. 2). […] The rise in intracellular calcium observed during reperfusion was prevented by inhibiting reverse movement of Na/Ca exchange (20 μM KB-R7943). *P<0.05 compared to control. +P<0.05 compared to reperfusion. Values are mean±SD. Intracellular calcium was measured with fluorescent imaging, using Fluo-4. […]

Regarding `CS(=O)(=O)O.N=C(N)SCCc1ccc(OCc2ccc([N+](=O)[O-])cc2)cc1` [KB-R7943, 2-[2-[4-(4-nitrobenzyloxy)phenyl]ethyl]isothiourea methanesulphonate], the “cytoprotection under conditions of ischemia and reperfusion” value in the assay on heart and kidney is “cytoprotective”. Also, at Na/Ca exchange, the “direction selectivity of Na/Ca exchange inhibition” value is recorded as “greater affinity for suppressing movement in the reverse direction” and the “effect on Na/Ca exchange” value is “inhibits Na/Ca exchange”. The “rise in intracellular calcium observed during reperfusion” value in assay [1] is given as “prevented; also recorded: inhibits the rise in intracellular calcium”.
